Experiments:
RsTSPO WT = conditions: cited from earlier work
RsTSPO A139T mutant = RsTSPO A139T mutant (Cereibacter sphaeroides, UniProt Q9RFC8, A139T); test: Ligand binding affinity of purified RsTSPO A139T mutant; parameters: species or system Rhodobacter sphaeroides
Sequence of RsTSPO A139T mutant (Q9RFC8 whole entry A139T): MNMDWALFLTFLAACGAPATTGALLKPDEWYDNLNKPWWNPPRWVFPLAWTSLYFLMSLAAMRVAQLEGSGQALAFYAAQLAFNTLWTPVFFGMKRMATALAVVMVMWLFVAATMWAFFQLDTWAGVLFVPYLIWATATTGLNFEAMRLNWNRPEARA

| Structure (SMILES) | affinities of RsTSPO for ligands (range in words) (RsTSPO WT) | Kd (RsTSPO A139T mutant) |
| --- | --- | --- |
| CCC(C)N(C)C(=O)c1cc2ccccc2c(-c2ccccc2Cl)n1 (stereo not drawn) [PK11195] | high nanomolar to micromolar range | 42 ± 4 µM |
| C=CC1=C(C)c2cc3[nH]c(cc4nc(cc5[nH]c(cc1n2)c(C)c5CCC(=O)O)C(CCC(=O)O)=C4C)c(C)c3C=C [PpIX, protoporphyrin IX] | high nanomolar to micromolar range | 1.9 ± 0.3 µM |
| CC(C)CCC[C@@H](C)[C@H]1CC[C@H]2[C@@H]3CC=C4C[C@@H](O)CC[C@]4(C)[C@H]3CC[C@]12C [cholesterol] | high nanomolar to micromolar range | > 300 µM |

— publication PMC5125025 (Science (New York, N.Y.), 2015)
